{
  "source": "patent US11219625B2",
  "about": "“Inhibitors of N-linked glycosylation and methods using same” (YALE UNIVERSITY, priority 2015, dated 2022)",
  "key": {"[1]": {"system": "EGFR", "test": "Western blot of EGFR phosphorylation, PC9 cells", "format": "cell-based", "settings": "PC9, 10 μM NGI-1, 1 day", "protocol": "FIGS. 4A-4H illustrate the finding that NGI-1 blocks RTK driven proliferation. FIG. 4A illustrates western blot analysis of EGFR phosphorylation (Y1173) and gel mobility in PC9 (EGFR-mutant) and A549 (k-ras mutant) NSCLC cells after 10 μM NGI-1 treatment for 24 h. […] Actin expression was used as a control for protein loading. FIG. 4B illustrates MTT assays results of PC9 following treatment with 10 μM NGI-1 or 1 μM tunicamycin for a total of 5 d. Relative proliferation id reported in fold increase from day 0. FIG. 4C illustrates MTT assays results of A549 following treatment with 10 μM NGI-1 or 1 μM tunicamycin for a total of 5 d. Relative proliferation id reported in fold increase from day 0. FIG. 4D illustrates protein phosphorylation profiles of PC9 cells analyzed by phospho-protein array to assess the response of PC9 to 10 μM NGI-1 for 24 h. FIG. 4E illustrates protein phosphorylation profiles of A549 cells analyzed by phospho-protein array to assess the response of A549 to 10 μM NGI-1 for 24 h. FIG. 4F illustrates western blot analysis of FGFR phosphorylation (Y653/654) and gel mobility for H1581 (TKI sensitive) and H2444 (TKI insensitive) NSCLC cell lines. […] FIG. 4G illustrates MTT assays for H1581 cells treated with 10 μM NGI-1 for 5 d. Asterisk (***) indicates a significant difference p<0.001 for MTT. FIG. 4H illustrates MTT assays for H2444 cells treated with 10 μM NGI-1 for 5 d. […]"}, "[2]": {"system": "A549 cells", "test": "Cell cycle distribution by flow cytometry, A549", "format": "cell-based", "settings": "A549, NGI-1 24 h", "protocol": "(§1) FIGS. 5A-5G illustrate NGI-1 induces G1 arrest and senescence in EGFR addicted tumor cells. FIG. 5A illustrates cell cycle distribution of PC9 cells after 24 h NGI-1 treatment for 24 h determined by flow cytometry. […] FIG. 5B illustrates cell cycle distribution of A549 cells after 24 h NGI-1 treatment for 24 h determined by flow cytometry. FIG. 5C illustrates western blot time course of cyclin D1 expression in PC9 and A549 cells after NGI-1 treatment. FIG. 5D illustrates quantitative real-time PCR analysis of PC9 and A549 cells. A time course of cyclin D1 expression levels relative to GAPDH is represented. […] FIG. 5F illustrates senescence of PC9 cells explored by: cell autofluorescence, measured by flow cytometry using a detector for PE/YFP; lipofuscin accumulation, detected by confocal laser scanning microscopy using an excitation laser of 405 nm with acquired signals from spectrums of yellow 575-620 nm; and morphology changes, enlarged vs. flattened. […] Significance was calculated using a T test (*p<0.05. **p<0.01). FIG. 5G illustrates senescence of A549 cells explored by: cell autofluorescence, measured by flow cytometry using a detector for PE/YFP; lipofuscin accumulation, detected by confocal laser scanning microscopy using an excitation laser of 405 nm with acquired signals from spectrums of yellow 575-620 nm; and morphology changes, enlarged vs. flattened. […]"}, "[3]": {"system": "cyclin D1", "test": "Cyclin D1 expression (qRT-PCR, western blot), A549", "format": "cell-based, human", "protocol": "as §1"}},
  "data": [
    {"smiles": "Cc1cnc(NC(=O)c2cc(S(=O)(=O)N(C)C)ccc2N2CCCC2)s1", "note": "[NGI-1, 5-(N,N-Dimethylsulfamoyl)-N-(5-methylthiazol-2-yl)-2-(pyrrolidin-1-yl)benzamide]", "values": [
      {"measurement": "EGFR phosphorylation", "setting": "[1]", "result": "blocked phosphorylation of KD mutant EGFR"},
      {"measurement": "cell cycle distribution", "setting": "[2]", "result": "did not significantly change the cell cycle distribution"},
      {"measurement": "cyclin D1 mRNA and protein levels", "setting": "[3]", "result": "not significantly affected"}
    ]}
  ]
}
